Assay results from patent US8105845B2, “System and method for carrying out multiple binding reactions in an array format” (Bio-Rad Haifa Ltd., priority 2003, dated 2012).

How the values were obtained:
[1] = target: Cytochrome-P450 (CYP) 2C19 (Homo sapiens, UniProt P33261); test: biochemical
[2] = target: T1, Cytochrome-P450 (CYP) 1A2 (Homo sapiens, UniProt P05177); test: biochemical
T1 sequence (P05177 1-516): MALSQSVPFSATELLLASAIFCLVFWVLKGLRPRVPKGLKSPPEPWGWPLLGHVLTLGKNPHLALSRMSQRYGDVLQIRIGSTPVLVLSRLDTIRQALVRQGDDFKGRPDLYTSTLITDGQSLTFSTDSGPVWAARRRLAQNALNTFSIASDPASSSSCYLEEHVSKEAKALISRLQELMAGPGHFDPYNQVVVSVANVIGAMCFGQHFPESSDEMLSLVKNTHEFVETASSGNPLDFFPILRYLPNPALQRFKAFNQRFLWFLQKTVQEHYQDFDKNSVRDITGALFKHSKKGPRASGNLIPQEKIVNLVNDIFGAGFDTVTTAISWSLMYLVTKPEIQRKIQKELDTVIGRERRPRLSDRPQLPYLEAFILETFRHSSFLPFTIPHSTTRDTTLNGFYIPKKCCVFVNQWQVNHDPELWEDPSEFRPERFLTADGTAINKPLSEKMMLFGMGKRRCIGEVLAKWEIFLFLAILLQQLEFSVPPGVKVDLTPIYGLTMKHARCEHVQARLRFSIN

[3] = target: Cytochrome-P450 (CYP) 2C9 (Homo sapiens, UniProt P11712); test: SPR array binding of compound targets to immobilized CYP450 enzyme probes
[4] = target: Cytochrome-P450 (CYP) 2D6 (Homo sapiens, UniProt P10635); test: biochemical
Chain of Cytochrome-P450 (CYP) 2D6 (P10635 whole entry): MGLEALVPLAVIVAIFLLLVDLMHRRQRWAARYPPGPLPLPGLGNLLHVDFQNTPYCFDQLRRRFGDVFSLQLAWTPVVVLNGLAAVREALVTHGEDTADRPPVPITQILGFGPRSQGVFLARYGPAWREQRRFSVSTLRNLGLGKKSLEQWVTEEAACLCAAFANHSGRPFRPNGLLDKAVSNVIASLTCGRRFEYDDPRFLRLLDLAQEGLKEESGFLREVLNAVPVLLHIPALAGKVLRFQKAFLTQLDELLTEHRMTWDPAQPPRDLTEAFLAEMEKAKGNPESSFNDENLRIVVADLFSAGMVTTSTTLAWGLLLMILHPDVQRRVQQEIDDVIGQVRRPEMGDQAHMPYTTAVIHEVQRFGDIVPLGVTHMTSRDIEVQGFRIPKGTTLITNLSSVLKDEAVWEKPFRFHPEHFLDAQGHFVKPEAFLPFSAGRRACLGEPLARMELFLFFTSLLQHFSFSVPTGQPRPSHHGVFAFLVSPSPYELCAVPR

Chain of Cytochrome-P450 (CYP) 2C19 (P33261 whole entry): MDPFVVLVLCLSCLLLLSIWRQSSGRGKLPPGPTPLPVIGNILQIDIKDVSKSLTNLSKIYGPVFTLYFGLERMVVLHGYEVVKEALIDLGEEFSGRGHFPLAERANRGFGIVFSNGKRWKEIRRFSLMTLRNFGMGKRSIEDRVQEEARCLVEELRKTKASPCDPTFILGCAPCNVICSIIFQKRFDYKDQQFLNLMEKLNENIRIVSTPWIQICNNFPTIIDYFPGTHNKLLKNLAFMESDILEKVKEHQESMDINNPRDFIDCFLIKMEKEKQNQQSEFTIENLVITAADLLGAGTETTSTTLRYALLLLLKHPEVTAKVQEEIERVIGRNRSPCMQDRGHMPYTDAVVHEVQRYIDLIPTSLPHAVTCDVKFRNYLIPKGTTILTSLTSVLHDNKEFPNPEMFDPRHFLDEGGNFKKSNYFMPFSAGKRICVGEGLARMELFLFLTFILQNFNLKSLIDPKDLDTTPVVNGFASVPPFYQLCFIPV
Chain of Cytochrome-P450 (CYP) 2C9 (P11712 whole entry): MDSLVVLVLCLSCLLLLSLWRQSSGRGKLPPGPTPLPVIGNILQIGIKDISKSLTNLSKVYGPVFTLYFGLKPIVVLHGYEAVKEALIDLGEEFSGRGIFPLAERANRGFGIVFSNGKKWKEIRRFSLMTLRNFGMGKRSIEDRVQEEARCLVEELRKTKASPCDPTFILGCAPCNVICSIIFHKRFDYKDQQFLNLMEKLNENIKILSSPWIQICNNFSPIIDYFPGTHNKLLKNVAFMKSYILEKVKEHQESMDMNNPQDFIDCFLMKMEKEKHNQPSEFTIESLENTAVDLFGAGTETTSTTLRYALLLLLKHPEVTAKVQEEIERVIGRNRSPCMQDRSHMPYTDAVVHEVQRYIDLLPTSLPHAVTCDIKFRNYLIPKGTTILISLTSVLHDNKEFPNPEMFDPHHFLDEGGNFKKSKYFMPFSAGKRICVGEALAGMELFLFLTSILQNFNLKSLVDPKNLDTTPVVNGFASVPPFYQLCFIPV

Row | Structure (SMILES) | Kd [1] [mM] | Kd [2] [mM] | Kd [3] [mM] | Kd [4] [mM]
1 | CC(C)NCC(O)COc1cccc2ccccc12 (stereo not drawn) [Propranolol] | 6.59 | 0.873 | 5.13 | 
2 | O=C(O)Cc1ccccc1Nc1c(Cl)cccc1Cl [Diclofenac] | 0.717 | 14.2 |  | 0.681
3 | COc1ccc2c(c1)[C@]13CCCC[C@@H]1[C@H](C2)N(C)CC3 [Dexomethorphan] | 7.9 |  | 28.3 | 60.4
